Reference: US20240277799A1, “Translational Activators, Including Methods of Discovery and Uses Thereof” (The Board of Trustees of the Leland Stanford Junior …, priority 2023, published 2024)

Assays:
[1] = system: A459 cells transfected with siRNA targeting RPL11 (siRPL11); assay: global protein synthesis in cells with insufficient global protein synthesis (siRPL11); assay type: cell-based; settings: FIGS. 4A-4D; for concentrations that increase protein synthesis, fold lower as compared to erythromycin: siRPL11 cells
Procedure: FIGS. 2A-2D provide data and a schematic of an example of a screening method to discover and/or identify translational activators. In this example, cells with decreased global protein synthesis via small interfering RNA (siRNA) knockdown of an RP are cultured within a multi-well format. Each well of cultured cells is contacted with a compound and then examined for global protein synthesis. Compounds that increased global protein synthesis were considered a putative translational activator for further examination.
To begin, cells are prepared (FIG. 2B). In some embodiments, cells having decreased global protein translation are cultured. It should be understood that any cells can be assessed and it is not required that the cells have decreased global protein translation, but cells with decreased global protein translation may improve identification of translational activators. In some embodiments, the cells are known to have a wild-type p53 sequence, which can reduce cofounding factors. Culturing of cells can be in plates, tubes, flasks, and/or any other appropriate container. High throughput methods can use multi-well plates (e.g., 96-well, 384-well, 1536-well, etc.) or any other means for dividing a cell culture into multiple populations.
In some embodiments, the cells that are cultured are manipulated to decrease global translation. In some embodiments, cells are manipulated by reducing expression of or inhibiting functionality of a ribosomal subunit. Examples of ribosomal subunits that can be targeted include (but are not limited to) RPL5, RPL11, RPS6, and RPS19, each of which are involved in various ribosomopathies. One method to reduce ribosomal subunit expression is knockdown via antisense and/or RNA interference (RNAi) technology. […] The example method within FIG. 2B utilizes reverse transfection in which double-stranded siRNA complexes are preformed and transfected into the cells, which are then cultured.
Upon preparing the cells, the cells are then treated with compounds (FIG. 2C). In some embodiments, cultured cells are contacted with a compound to assess their effect on global protein translation. […] If using a pooling strategy, hits can be further assessed to delineate which compound (or combination of compounds) yield the beneficial effect. Compounds can be assessed at a single concentration, or multiple concentrations. […] For high-throughput assessments, multiple cell cultures (e.g., multiple wells) can be assessed concurrently, each cell culture provided with the same conditions except for the compound (or concentration thereof) utilized to contact the cells of the culture.
After a period of incubating the cell culture with a compound, global protein production can be assessed (FIG. 2D). Any readout for measuring protein synthesis can be utilized. […]

[2] = cellular toxicity, relative total cell count against concentration; settings: at concentrations that improve protein synthesis; FIG. 5
Excerpt: Specifically, FIG. 5 illustrates relative total cell count is plotted against the concentration provided.

[3] = system: A459 cells transfected with a control siRNA (siCTRL); assay: global protein synthesis in control cells (siCTRL); assay type: cell-based; settings: siCTRL cells with normal global synthesis; FIGS. 4A-4D
Procedure: FIGS. 2A-2D provide data and a schematic of an example of a screening method to discover and/or identify translational activators. In this example, cells with decreased global protein synthesis via small interfering RNA (siRNA) knockdown of an RP are cultured within a multi-well format. Each well of cultured cells is contacted with a compound and then examined for global protein synthesis. Compounds that increased global protein synthesis were considered a putative translational activator for further examination. To begin, cells are prepared (FIG. 2B). In some embodiments, cells having decreased global protein translation are cultured. It should be understood that any cells can be assessed and it is not required that the cells have decreased global protein translation, but cells with decreased global protein translation may improve identification of translational activators. […] If using a pooling strategy, hits can be further assessed to delineate which compound (or combination of compounds) yield the beneficial effect. Compounds can be assessed at a single concentration, or multiple concentrations. […] For high-throughput assessments, multiple cell cultures (e.g., multiple wells) can be assessed concurrently, each cell culture provided with the same conditions except for the compound (or concentration thereof) utilized to contact the cells of the culture. […]

CC[C@H]1OC(=O)[C@H](C)[C@@H](O[C@H]2C[C@@](C)(OC)[C@@H](O)[C@H](C)O2)[C@H](C)[C@@H](O[C@@H]2O[C@H](C)C[C@H](N(C)C)[C@H]2O)[C@](C)(O)C[C@@H](C)C(=O)[C@H](C)[C@@H](O)[C@]1(C)O [erythromycin]
ability to increase protein synthesis ([1]; siRPL11 cells having insufficient global protein synthesis): increased protein synthesis at high concentrations

CC[C@H]1OC(=O)[C@H](C)C(=O)[C@H](C)[C@@H](O[C@@H]2O[C@H](C)C[C@H](N(C)C)[C@H]2O)[C@](C)(OC)C[C@@H](C)C(=O)[C@H](C)[C@H]2N(CCCCn3cnc(-c4cccnc4)c3)C(=O)O[C@]12C [telithromycin]
concentrations that increase protein synthesis, fold lower as compared to erythromycin [1]: 10 fold

CC[C@H]1OC(=O)[C@@](C)(F)C(=O)[C@H](C)[C@@H](O[C@@H]2O[C@H](C)C[C@H](N(C)C)[C@H]2O)[C@](C)(OC)C[C@@H](C)C(=O)[C@H](C)[C@H]2N(CCCCn3cc(-c4cccc(N)c4)nn3)C(=O)O[C@]12C [solithromycin]
concentrations that increase protein synthesis, fold lower as compared to erythromycin [1]: 10 fold | cellular toxicity (relative total cell count) [2]: little to no toxicity

CC[C@H]1OC(=O)[C@H](C)[C@@H](O[C@H]2C[C@@](C)(OC)[C@@H](O)[C@H](C)O2)[C@H](C)[C@@H](O[C@@H]2O[C@H](C)C[C@H](N(C)C)[C@H]2O)[C@](C)(O)C[C@@H](C)CN(C)[C@H](C)[C@@H](O)[C@]1(C)O [azithromycin]
concentrations that increase protein synthesis, fold lower as compared to erythromycin [1]: 10 fold | increase of protein synthesis in control cells [3]: increased protein synthesis in control cells
